Assay results from the supplement of paper PMC11208160.

Assay: recombinant UMI read abundance after kanamycin selection (control-corrected) (log10(CPM+1)); higher = more efficient recombination; extreme values may be limits of the assay; sequences stand for … in AGTGCAGAGAAAATCGGCCAGTTTTCTCTGCCTGCAGTCCGCATGCCGTGGGACCCCTTGGGTTCTAACCTGTTGCCTAGATTTATGCAGCGGACTGCCTTTCTCCCAAAGTGATAAACCGG…AGGTTGGTTTCACT; site = the 11-nt donor
Procedure, shortened: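 Sequencing read counts were converted to CPM, averaged over two replicates and scaled by control-derived factors. Results are given as log10(CPM+1). The reads covered the donor–target junction of recombinant UMIs from a pooled Escherichia coli screen of donor and donor-binding-loop pairs for the IS621 bridge recombinase.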
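Note: IS621 bridge recombinase in Escherichia coli cells against a fixed T5 target plasmid.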

Row | Sequence | recombinant UMI read abundance (log10)
1 | TAGAGTACATGGACCGGTTTTCCCGGTAATCCGTATTTGCA (site TAGACTACTTG) | 0.88
2 | TAGAGTACATGGACCGGTTTTCCCGGTAATCCGTATTTGCA (site TAGAGTACTTG) | 2.08
3 | TAGAGTACATGGACCGGTTTTCCCGGTAATCCGTATTTGCA (site TAGATTACTTG) | 0
4 | TAGATAACATGGACCGGTTTTCCCGGTAATCCGTATTTGTG (site TAGATAACTCA) | 1.2
5 | TAGATAGCATGGACCGGTTTTCCCGGTAATCCGTATTTGAA (site TAGATAGCTTT) | 2.07
6 | TAGATAGCATGGACCGGTTTTCCCGGTAATCCGTATTTGAA (site TAGCTAGCTTT) | 0.0111
7 | TAGATAGCATGGACCGGTTTTCCCGGTAATCCGTATTTGAA (site TAGGTAGCTTT) | 0.0819
8 | TAGATAGCATGGACCGGTTTTCCCGGTAATCCGTATTTGAA (site TAGTTAGCTTT) | 0.173
9 | TAGCACGCATGGACCGGTTTTCCCGGTAATCCGTATTTGGG (site AAGCACGCTCC) | 0.0104
10 | TAGCACGCATGGACCGGTTTTCCCGGTAATCCGTATTTGGG (site CAGCACGCTCC) | 0.00759
11 | TAGCACGCATGGACCGGTTTTCCCGGTAATCCGTATTTGGG (site GAGCACGCTCC) | 0.0209
12 | TAGCACGCATGGACCGGTTTTCCCGGTAATCCGTATTTGGG (site TAGCACGCTCC) | 0.0358
13 | TAGCCGTCATGGACCGGTTTTCCCGGTAATCCGTATTTGGT (site TAGCCATCTAC) | 0.764
14 | TAGCCGTCATGGACCGGTTTTCCCGGTAATCCGTATTTGGT (site TAGCCCTCTAC) | 0
15 | TAGCCGTCATGGACCGGTTTTCCCGGTAATCCGTATTTGGT (site TAGCCGTCTAC) | 0.776
16 | TAGCCGTCATGGACCGGTTTTCCCGGTAATCCGTATTTGGT (site TAGCCTTCTAC) | 0.013
17 | TAGCCTTCATGGACCGGTTTTCCCGGTAATCCGTATTTGGA (site TAGCCTTCTAC) | 0.0179
18 | TAGCCTTCATGGACCGGTTTTCCCGGTAATCCGTATTTGGA (site TAGCCTTCTCC) | 0.02
19 | TAGCCTTCATGGACCGGTTTTCCCGGTAATCCGTATTTGGA (site TAGCCTTCTGC) | 0
20 | TAGCCTTCATGGACCGGTTTTCCCGGTAATCCGTATTTGGA (site TAGCCTTCTTC) | 0.00303
21 | TAGCCTTCATGGACCGGTTTTCCCGGTAATCCGTATTTGGG (site TAGCCTTCTAC) | 0
22 | TAGCCTTCATGGACCGGTTTTCCCGGTAATCCGTATTTGGG (site TAGCCTTCTCC) | 0.0175
23 | TAGCCTTCATGGACCGGTTTTCCCGGTAATCCGTATTTGGG (site TAGCCTTCTGC) | 0

Row | Sequence | recombinant UMI read abundance (log10)
24 | TAGCCTTCATGGACCGGTTTTCCCGGTAATCCGTATTTGGG (site TAGCCTTCTTC) | 0.0097
25 | TAGCGAACATGGACCGGTTTTCCCGGTAATCCGTATTTGGA (site TAGCGAACTTC) | 1.05
26 | TAGCGAGCATGGACCGGTTTTCCCGGTAATCCGTATTTGAA (site TAGCAAGCTTT) | 1.3
27 | TAGCGAGCATGGACCGGTTTTCCCGGTAATCCGTATTTGAA (site TAGCCAGCTTT) | 0.0145
28 | TAGCGAGCATGGACCGGTTTTCCCGGTAATCCGTATTTGAA (site TAGCGAGCTTT) | 1.41
29 | TAGCGAGCATGGACCGGTTTTCCCGGTAATCCGTATTTGAA (site TAGCTAGCTTT) | 0.00707
30 | TAGCGAGCATGGACCGGTTTTCCCGGTAATCCGTATTTGTA (site TAGCGAGCTTA) | 1.82
31 | TAGCGGCCATGGACCGGTTTTCCCGGTAATCCGTATTTGAA (site TAGCGGCCTTT) | 0.205
32 | TAGCGTACATGGACCGGTTTTCCCGGTAATCCGTATTTGTA (site TAGCGTACTTA) | 1.2
33 | TAGCTAACATGGACCGGTTTTCCCGGTAATCCGTATTTGAA (site TAGCTAACTTT) | 1.09
34 | TAGCTAACATGGACCGGTTTTCCCGGTAATCCGTATTTGAA (site TAGCTACCTTT) | 0.00585
35 | TAGCTAACATGGACCGGTTTTCCCGGTAATCCGTATTTGAA (site TAGCTAGCTTT) | 0.00737
36 | TAGCTAACATGGACCGGTTTTCCCGGTAATCCGTATTTGAA (site TAGCTATCTTT) | 0.429
37 | TAGCTACCATGGACCGGTTTTCCCGGTAATCCGTATTTGAA (site TAGCTAACTTT) | 0.00682
38 | TAGCTACCATGGACCGGTTTTCCCGGTAATCCGTATTTGAA (site TAGCTACCTTT) | 0.00616
39 | TAGCTACCATGGACCGGTTTTCCCGGTAATCCGTATTTGAA (site TAGCTAGCTTT) | 0.00385
40 | TAGCTACCATGGACCGGTTTTCCCGGTAATCCGTATTTGAA (site TAGCTATCTTT) | 0.784
41 | TAGCTATCATGGACCGGTTTTCCCGGTAATCCGTATTTGAA (site TAGCTAACTTT) | 0.00325
42 | TAGCTATCATGGACCGGTTTTCCCGGTAATCCGTATTTGAA (site TAGCTACCTTT) | 0.0124
43 | TAGCTATCATGGACCGGTTTTCCCGGTAATCCGTATTTGAA (site TAGCTAGCTTT) | 0.00959
44 | TAGCTATCATGGACCGGTTTTCCCGGTAATCCGTATTTGAA (site TAGCTATCTTT) | 2.02
45 | TAGCTCACATGGACCGGTTTTCCCGGTAATCCGTATTTGAT (site AAGCTCACTAT) | 0.00391
46 | TAGCTCACATGGACCGGTTTTCCCGGTAATCCGTATTTGAT (site CAGCTCACTAT) | 0.61

Row | Sequence | recombinant UMI read abundance (log10)
47 | TAGCTCACATGGACCGGTTTTCCCGGTAATCCGTATTTGAT (site GAGCTCACTAT) | 0.0104
48 | TAGCTCACATGGACCGGTTTTCCCGGTAATCCGTATTTGAT (site TAGCTCACTAT) | 1.47
49 | TAGGAATCATGGACCGGTTTTCCCGGTAATCCGTATTTGGG (site TAGGAATCTCA) | 0.407
50 | TAGGAATCATGGACCGGTTTTCCCGGTAATCCGTATTTGGG (site TAGGAATCTCC) | 1.79
51 | TAGGAATCATGGACCGGTTTTCCCGGTAATCCGTATTTGGG (site TAGGAATCTCG) | 0
52 | TAGGAATCATGGACCGGTTTTCCCGGTAATCCGTATTTGGG (site TAGGAATCTCT) | 0.56
53 | TAGGATACATGGACCGGTTTTCCCGGTAATCCGTATTTGCA (site TAGAATACTTG) | 1.71
54 | TAGGATACATGGACCGGTTTTCCCGGTAATCCGTATTTGCA (site TAGCATACTTG) | 0.852
55 | TAGGATACATGGACCGGTTTTCCCGGTAATCCGTATTTGCA (site TAGGATACTTG) | 3.06
56 | TAGGATACATGGACCGGTTTTCCCGGTAATCCGTATTTGCA (site TAGTATACTTG) | 1.44
57 | TAGGATTCATGGACCGGTTTTCCCGGTAATCCGTATTTGCG (site TAGGAATCTCG) | 1.73
58 | TAGGATTCATGGACCGGTTTTCCCGGTAATCCGTATTTGCG (site TAGGACTCTCG) | 1.68
59 | TAGGATTCATGGACCGGTTTTCCCGGTAATCCGTATTTGCG (site TAGGAGTCTCG) | 0.435
60 | TAGGATTCATGGACCGGTTTTCCCGGTAATCCGTATTTGCG (site TAGGATTCTCG) | 2.94
61 | TAGGCAACATGGACCGGTTTTCCCGGTAATCCGTATTTGCA (site TAGGCAACTTG) | 0.0204
62 | TAGGCATCATGGACCGGTTTTCCCGGTAATCCGTATTTGCG (site TAGGAATCTCG) | 0
63 | TAGGCATCATGGACCGGTTTTCCCGGTAATCCGTATTTGCG (site TAGGCATCTCG) | 1.31
64 | TAGGCATCATGGACCGGTTTTCCCGGTAATCCGTATTTGCG (site TAGGGATCTCG) | 0.00568
65 | TAGGCATCATGGACCGGTTTTCCCGGTAATCCGTATTTGCG (site TAGGTATCTCG) | 0.449
66 | TAGGGGACATGGACCGGTTTTCCCGGTAATCCGTATTTGAA (site TAGGGGACTTT) | 1.24
67 | TAGGTAGCATGGACCGGTTTTCCCGGTAATCCGTATTTGAA (site TAGATAGCTTT) | 0.894
68 | TAGGTAGCATGGACCGGTTTTCCCGGTAATCCGTATTTGAA (site TAGCTAGCTTT) | 0.00863
